For data set [1], the system named is testosterone level in NCI-H295R cells. Description: cells. In kind it is cell-based. The note with it: Homo sapiens, 72 h; for inhibition at 0.1 µM: read-out: Testosterone level in H295R (Elisa) inh.% 100 nM; for inhibition at 1 µM: read-out: Testosterone level in H295R (Elisa) inh.% 1000 nM; for IC50: read-out: IC50/nM. As to the method:
1. The purpose of the experimental study was intended to detect the testosterone level in the NCI-H295R cells by adopting the Enzyme linked immunosorbent assay (ELISA), so as to evaluate the inhibitory effects of the compounds on the testosterone level in the NCI-H295R cells. The H295R cells were purchased from ATCC, the cell complete medium contained DMEM: F12+ 10% FBS +0.00625 mg/ml insulin +0.00625 mg/ml transferrin+6.25 ng/ml selenium +1.25 mg/ml BSA+0.00535 mg/ml linoleic acid, and the cells were cultured in a 37°C, 5% CO2 incubator. The cells in the exponential growth phase were collected, and cultured in a cytokine-free medium (phenol red 1640-free +1% PS+10% css FBS+1.25 mg/ml BSA +0.00625 mg/ml insulin + 0.00625 mg/ml transferrin+6.25 ng/ml selenium+0.00535 mg/ml linoleic acid) for 3 days. The cells in the exponential growth phase were collected on the third day. The cell suspension was adjusted with a cytokine-free medium to a corresponding concentration and plated at 60000 cells/well, with the volume being 90 µL/well. Subsequently, 10 µL of the compounds at different concentrations was added and the plate was incubated in a CO2 incubator for 3 days. After the incubation was completed, according to the operation instructions for testosterone Elisa kit (Beyotime, PT872), 50 µL of the cell culture supernatant was collected from each well and centrifuged at 500 g for 5 min at room temperature and then the resulting supernatant was collected. The samples were added to the corresponding wells at 25 µl/well, and then formulated horseradish peroxidase labeled testosterone was added at 75 µl/well. The mixture was fully mixed for 10 seconds. The reaction wells were sealed with a plate-sealing film (white) and the mixture was incubated at room temperature in the dark for 120 min. The plate was washed 3 times with a volume of 300 µl per well, and then placed onto thick absorbent paper and dried. Chromogenic reagent TMB solution was added at 100 µl/well. The reaction wells were sealed with a plate-sealing film (white) and the mixture was incubated at room temperature in the dark for 15-20 min. Subsequently, a termination solution was added at 50 µl/well, and after the mixture was fully mixed, the absorbance value OD450 was immediately measured. The absorbance readings were processed using Graphpad Prim 8.0 software and S-shaped concentration curves were plotted and the IC50 values were calculated using a four-parameter non-linear regression model. The results were processed according to formula (1), the inhibition rate of the compound at different concentrations was calculated, and the IC50 value of the compound with an inhibition rate of 50% was calculated using Graphpad Prim 8.0 software, wherein RLU compound was the readout of the treated group, and RLU control was the average value of the solvent control group. Inhibition rate% = 100-RLUcompound /RLUcontrol × 100 [formula] Table 1. Inhibitory activity on testosterone level in NCI-H295R cells

The nature of data set [2]: Pharmacokinetic test in rats. The class given is in vivo. The note with it: rat, male SD rats, plasma; for Vd: read-out: Vdss. As to the method: 3.1 Experimental animals: Male SD rats (about 220 g, 6-8 weeks old, 6 rats/compound), purchased from Chengdu Dossy Experimental Animals Co., Ltd.
3.2 Experimental design: On the day of the experiment, the SD rats were randomly grouped by body weight. […] Table 3. Administration information
Before and after the administration, 0.1 ml of blood was taken from the orbit of the animals under isoflurane anesthesia and placed in an EDTAK2 centrifuge tube. The blood was centrifuged at 5000 rpm and 4°C for 10 min to collect plasma. […] Before analysis and detection, all samples were stored at -80°C. Table 4. Pharmacokinetic parameters of test compounds in plasma of rats

[3] abbreviates: po, intragastric administration (10 mg/kg).
Setting [4] is: intravenous administration (2.5 mg/kg).

For the compound `CS(=O)(=O)N1CCC(COc2ccc(CN3Cc4ccccc4C3)c3cccnc23)CC1` [Compound 4], in data set [1], the inhibition at 0.1 µM is 81.5% and the inhibition at 1 µM turned out to be 89.2%.

As to `CS(=O)(=O)N1CCC(CCOc2cc(CN3Cc4ccccc4C3)ccn2)CC1` [Compound 10], in data set [1], the IC50 was determined as 81.9 nM and the inhibition at 1 µM worked out at 85.4%.

Take `CS(=O)(=O)N1CCC(CCn2ccc(CN3Cc4ccc(C5CC5)cc4C3)cc2=O)CC1` [Compound 16]: in data set [1], the inhibition at 0.1 µM came out at 51.7% and the inhibition at 1 µM came out at 89.4%.

Regarding `CS(=O)(=O)N1CCC(c2cc3oc(CN4Cc5ccc(C(F)(F)F)cc5C4)cc(=O)c3o2)CC1` [Compound 30], in data set [1], the IC50 was found to be 35.3 nM, the inhibition at 0.1 µM turned out to be 59.1% and the inhibition at 1 µM is 80.9%.

For the compound `O=C(OC1CC1)N1CCC(COc2ccc(CN3Cc4ccc(C(F)(F)F)cc4C3)c3ccc(F)nc23)CC1` [Compound 36], in data set [1], the inhibition at 0.1 µM worked out at 56.8% and the inhibition at 1 µM was 62%.

`CS(=O)(=O)N1CC(OC(=O)N2CCC(COc3ccc(CN4Cc5ccc(C(F)(F)F)cc5C4)c4c3OCCO4)CC2)C1` [Compound 37]: in data set [1], the inhibition at 0.1 µM is 87.1% and the inhibition at 1 µM was 77%.

`CS(=O)(=O)N1CC(OC(=O)N2CCC(COc3ccc(CN4Cc5ccc(C(F)(F)F)cc5C4)c4c3S(=O)(=O)CC4)CC2)C1` [Compound 39]: in data set [1], the inhibition at 0.1 µM was found to be 55.8% and the inhibition at 1 µM stood at 74.6%.

`O=C(OC1CC1)N1CCC(CCOc2cc(CN3Cc4ccc(C(F)(F)F)cc4C3)ccn2)CC1` [Compound 40]: in data set [1], the IC50 was 77 nM. In data set [2] (setting [3]), the AUC(0-t) was determined as 4210 ng·h/mL and the half-life is 11.1 h. Further, in data set [2] (setting [4]), the AUC(0-t) stood at 1950 ng·h/mL, the clearance came out at 19.1 mL/min/kg, the half-life is 9.77 h and the Vd was determined as 9.21 L/kg.

Regarding `CS(=O)(=O)N1CC(OC(=O)N2CCC(CCOc3cc(CN4Cc5ccsc5C4)ccn3)CC2)C1` [Compound 41], in data set [1], the inhibition at 0.1 µM is 51.5% and the inhibition at 1 µM worked out at 67.9%.

With `O=C(OC1CC1)N1CCC(Cc2cc3oc(CN4Cc5ccc(C(F)(F)F)cc5C4)cc(=O)c3o2)CC1` [Compound 42], in data set [1], the inhibition at 0.1 µM amounted to 76.9% and the inhibition at 1 µM was determined as 82.6%.

For `O=C(OC1CC1)N1CCC(/C=C/c2coc(CN3Cc4cc5c(cc4C3)CCC5)cc2=O)CC1` [Compound 43], in data set [1], the inhibition at 0.1 µM amounted to 75.6% and the inhibition at 1 µM turned out to be 77.8%.

In the case of `O=C(OC1CC1)N1CCC2(CC1)CC(Oc1cc(CN3Cc4ccc(C(F)(F)F)cc4C3)ccn1)C2` [Compound 48], in data set [1], the inhibition at 0.1 µM is 77.5% and the inhibition at 1 µM was 78.2%.

As for `CS(=O)(=O)N1CC(OC(=O)N2CCC(CCOc3cc(CN4Cc5ccc(C(F)(F)F)cc5C4)ccn3)CC2)C1` [Compound 49], in data set [1], the inhibition at 0.1 µM was determined as 57.7% and the inhibition at 1 µM turned out to be 65.2%.

For `O=C(N[C@H]1CC[C@H](CCOc2cc(CN3Cc4ccc(C(F)(F)F)cc4C3)ccn2)CC1)OC1CC1` [Compound 51], in data set [1], the inhibition at 0.1 µM came out at 74.4% and the inhibition at 1 µM was 78.5%. In data set [2] (setting [3]), the AUC(0-t) was determined as 13600 ng·h/mL and the half-life was 9.63 h. For the same compound, in data set [2] (setting [4]), the AUC(0-t) was found to be 4000 ng·h/mL, the clearance stood at 9.32 mL/min/kg, the half-life is 8.52 h and the Vd turned out to be 4.58 L/kg.

Turning to `N#Cc1cc(CN2Cc3ccc(C(F)(F)F)cc3C2)cc2cc(C3CCN(C(=O)OC4CC4)CC3)oc12` [Compound 53], in data set [1], the inhibition at 0.1 µM came out at 72.5% and the inhibition at 1 µM came to 85.5%. In data set [2] (setting [3]), the AUC(0-t) is 6750 ng·h/mL and the half-life was 8.13 h. Besides, in data set [2] (setting [4]), the AUC(0-t) worked out at 3110 ng·h/mL, the clearance came out at 11 mL/min/kg, the half-life was 13.2 h and the Vd worked out at 8.06 L/kg.

Turning to `COc1cc(CN2Cc3ccc(C(F)(F)F)cc3C2)cc2cc(C3CCN(C(=O)OC4CC4)CC3)oc12` [Compound 54], in data set [1], the inhibition at 0.1 µM worked out at 59.1% and the inhibition at 1 µM worked out at 78.4%. In data set [2] (setting [3]), this compound had an AUC(0-t) of 5840 ng·h/mL and a half-life of 7.74 h. In data set [2] (setting [4]), the AUC(0-t) amounted to 3560 ng·h/mL, the clearance amounted to 10.3 mL/min/kg, the half-life was 10.3 h and the Vd was 6.41 L/kg.

For the compound `O=C(OC1CC1)N1CCC(CCOc2ccnc(CN3Cc4ccc(C(F)(F)F)cc4C3)c2)CC1` [Compound 59], in data set [1], the inhibition at 0.1 µM turned out to be 60% and the inhibition at 1 µM is 76%.

For the compound `O=C(N[C@H]1CC[C@H](CCOc2cc(CN3Cc4ccc(C5CC5)cc4C3)ccn2)CC1)C1CC1` [Compound 60], in data set [2] (setting [3]), the AUC(0-t) amounted to 27100 ng·h/mL and the half-life was 2.36 h. Further, in data set [2] (setting [4]), the AUC(0-t) was 6080 ng·h/mL, the clearance was 6.8 mL/min/kg, the half-life was 1.75 h and the Vd turned out to be 0.951 L/kg.

For `O=C(N[C@H]1CC[C@H](Cc2cc3oc(CN4Cc5ccc(C(F)(F)F)cc5C4)cc(=O)c3o2)CC1)C1CC1` [Compound 66], in data set [1], the inhibition at 0.1 µM turned out to be 54.8% and the inhibition at 1 µM turned out to be 76.7%.

In the case of `[2H]C([2H])([2H])C(=O)N[C@H]1CC[C@H](Cc2cc3oc(CN4Cc5ccc(C(F)(F)F)cc5C4)cc(=O)c3o2)CC1` [Compound 67], in data set [1], the inhibition at 0.1 µM came out at 52% and the inhibition at 1 µM was 72%.

As to `N#Cc1cc(CN2Cc3ccc(C(F)(F)F)cc3C2)cc2cc([C@H]3CC[C@H](NC(=O)C4CC4)CC3)oc12` [Compound 69], in data set [1], the inhibition at 0.1 µM was found to be 79% and the inhibition at 1 µM came out at 80%.

In the case of `O=C(N[C@H]1CC[C@H](CCOc2cc(CN3Cc4ccc(C(F)(F)F)cc4C3)ccn2)CC1)[C@H]1CC1(F)F` [Compound 70], in data set [1], the inhibition at 0.1 µM was found to be 68.9% and the inhibition at 1 µM was determined as 76.3%.

`O=C(N[C@H]1CC[C@H](c2cc3oc(CN4Cc5ccc(C(F)(F)F)cc5C4)cc(=O)c3o2)CC1)C1CC(F)(F)C1` [Compound 72]: in data set [1], the inhibition at 0.1 µM stood at 81% and the inhibition at 1 µM came to 88%.

As to `COc1nc(CN2Cc3ccc(C(F)(F)F)cc3C2)ccc1OCC1CCN(C(=O)C2CC(F)(F)C2)CC1` [Compound 75], in data set [1], the inhibition at 0.1 µM amounted to 76.2% and the inhibition at 1 µM was 90.4%.

As to `O=C(CC(F)(F)F)N[C@H]1CC[C@H](CCOc2cc(CN3Cc4ccc(C(F)(F)F)cc4C3)ccn2)CC1` [Compound 76], in data set [1], the inhibition at 0.1 µM came to 70% and the inhibition at 1 µM turned out to be 78%.

As to `CS(=O)(=O)N1CCC(C2=COc3cc(CN4Cc5ccc(C(F)(F)F)cc5C4)ccc3O2)CC1` [Compound 84], in data set [1], the IC50 was found to be 38 nM, the inhibition at 0.1 µM was found to be 74% and the inhibition at 1 µM was 83%.

(Values after patent EP4700022A1, “CYP11A1 INHIBITORS AND USE THEREOF” (Xizang Haisco Pharmaceutical Co., Ltd., priority 2023, dated 2024).)
